Assay results published in paper PMC3958311 (EMBO Molecular Medicine, 2014).
≈ marks a conversion by molar mass, not a printed value. Like-named read-outs stand apart in the source and are kept apart here.

What was measured:
in vitro [1] = conditions: human, microsomes
C. glutamicum ATCC 13032 = assay: MIC99 by REMA; type: cell-based, Corynebacterium glutamicum; conditions: Corynebacterium glutamicum, ATCC13032; C. glutamicum ATCC 13032; read-out: MIC99
M. tuberculosis H37Rv [2] = type: in vivo, BALB/c mice
in vivo = assay: in vivo
Procedure: Table S5. Principal pharmacokinetic properties1
1 See Figure S5 for primary data.
Compound levels were measured in serum from individual female mice (3/time point) that had received a single dose of 25 mg/kg. Maximum concentration (Cmax); area under the curve (AUC); apparent clearance.
Comparative pharmacokinetic analysis. After receiving a single dose
(25 mg/kg) of PBTZ169 or BTZ043 by gavage, groups of three female mice were sacrificed at the times indicated, blood was obtained by cardiac puncture and the drug levels in serum determined by LC-MS/MS technique (limit of quantification 10 μg/L).

M. bolletii 1999-0888 = assay: MIC99 by REMA; type: cell-based; conditions: Mycobacteroides abscessus, 19990888; M. bolletii 1999-0888; read-out: MIC99
M. tuberculosis DprE1 = M. tuberculosis DprE1 (Mycobacterium tuberculosis, UniProt P9WJF1); assay: DprE1 inhibition, two step peroxidase-coupled assay with Amplex Red; type: biochemical; conditions: 5 min incubation, 5 μM enzyme, 200 μM FPR
Chain of M. tuberculosis DprE1 (P9WJF1 whole entry, looked up): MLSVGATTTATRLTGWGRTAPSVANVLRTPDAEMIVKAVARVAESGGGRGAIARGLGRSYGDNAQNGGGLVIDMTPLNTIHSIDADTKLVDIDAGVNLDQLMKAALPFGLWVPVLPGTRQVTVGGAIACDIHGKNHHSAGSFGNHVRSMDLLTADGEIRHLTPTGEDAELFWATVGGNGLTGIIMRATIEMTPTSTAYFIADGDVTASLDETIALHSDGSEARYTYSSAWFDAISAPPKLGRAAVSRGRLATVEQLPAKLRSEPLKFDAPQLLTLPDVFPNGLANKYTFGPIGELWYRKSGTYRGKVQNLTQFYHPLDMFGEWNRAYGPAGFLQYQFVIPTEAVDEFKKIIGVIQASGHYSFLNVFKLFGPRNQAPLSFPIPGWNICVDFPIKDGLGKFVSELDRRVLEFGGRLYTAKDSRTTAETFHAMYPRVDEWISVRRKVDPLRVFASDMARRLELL

zebrafish embryos = type: in vivo, zebrafish (Danio rerio)
Procedure: On examination of infected zebrafish embryos treated with BTZ043 it was observed that the compound affected embryo development (Fig 6A–G) especially at concentrations above 25 nM. […] These defects were also observed when uninfected embryos were exposed to BTZ043.
Figure 6 Effect of BTZ043 on M. marinum infected zebrafish embryo development. A–D M. marinum infected zebrafish embryos were treated with BTZ043 for 5 days at the concentrations indicated and photographed using a Leica DFC420C camera. The M strain was used for infection. E–F Images of the notochord from untreated and treated zebrafish, arrows indicate developmental abnormalities. G Analysis of zebrafish embryos displaying developmental abnormalities treated with BTZ043 (BTZ) or PBTZ169 (PBTZ) at the concentrations indicated.

M. bovis BCG Pasteur = assay: microbe, parasite or virus in culture; type: cell-based, Mycobacterium bovis BCG; conditions: Mycobacterium tuberculosis variant bovis BCG, BCG
M. smegmatis GM22 = assay: microbe, parasite or virus in culture; type: cell-based; conditions: Mycolicibacterium smegmatis; for MIC99: M. smegmatis GM22, overproduces NfnB nitroreductase, read-out: MIC99
C. diphtheriae DSM 44123 = assay: MIC99 by REMA; type: cell-based, Corynebacterium diphtheriae; conditions: Corynebacterium diphtheriae, DSM44123; C. diphtheriae DSM 44123; read-out: MIC99
in vitro [3] = conditions: mouse, microsomes
M. massiliense 2005-0484 = assay: MIC99 by REMA; type: cell-based; conditions: Mycobacteroides abscessus, 20050484; M. massiliense 2005-0484; read-out: MIC99
M. tuberculosis MDR_CHUV = assay: MIC99 by REMA; type: cell-based, Mycobacterium tuberculosis; conditions: Mycobacterium tuberculosis; read-out: MIC99
[4] = mouse
[5] = human
M. smegmatis mc^2155 = assay: MIC99 by REMA; type: cell-based, Mycobacterium smegmatis; conditions: Mycolicibacterium smegmatis; M. smegmatis mc^2155; read-out: MIC99
M. marinum Strain M [6] = assay: MIC99 by REMA; type: cell-based, Mycobacterium marinum; conditions: Mycobacterium marinum; M. marinum Strain M; read-out: MIC99
M. tuberculosis H37Rv [7] = assay: MIC by resazurin reduction microplate assay (REMA); type: cell-based, Mycobacterium tuberculosis; conditions: Mycobacterium tuberculosis; for MIC99: read-out: MIC99
[8] = molecular target: T1, purified recombinant M. smegmatis NfnB (Mycolicibacterium smegmatis, UniProt A0R6D0); assay: NfnB-mediated nitroreduction followed by LC-MS; type: biochemical
T1 construct: made in house
T1 sequence (A0R6D0 whole entry): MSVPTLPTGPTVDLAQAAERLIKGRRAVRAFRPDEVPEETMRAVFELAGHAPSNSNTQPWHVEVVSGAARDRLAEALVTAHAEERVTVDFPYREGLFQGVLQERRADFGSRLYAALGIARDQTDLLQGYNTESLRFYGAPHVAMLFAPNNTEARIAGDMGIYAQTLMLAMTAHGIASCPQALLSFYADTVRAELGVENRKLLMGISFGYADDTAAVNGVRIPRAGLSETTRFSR

M. avium ATCC 15769 = assay: MIC99 by REMA; type: cell-based; conditions: Mycobacterium avium, ATCC15769; M. avium ATCC 15769; read-out: MIC99
M. vaccae ATCC 15483 = assay: MIC99 by REMA; type: cell-based; conditions: Mycolicibacterium vaccae, ATCC15483; M. vaccae ATCC 15483; read-out: MIC99
M. abscessus 2005-0524 = assay: MIC99 by REMA; type: cell-based; conditions: Mycobacteroides abscessus, 20050524; M. abscessus 2005-0524; read-out: MIC99
M. marinum strain M [9] = type: in vivo, zebrafish (Danio rerio); conditions: 5 days treatment
M. bovis BCG BN2 = type: cell-based, Mycobacterium bovis BCG
[10] = tested on: M. tuberculosis clinical isolate 6374; assay: Drug susceptibility testing on solid Löwenstein-Jensen medium; type: cell-based; conditions: Mycobacterium tuberculosis; […]; solid Löwenstein-Jensen medium; read-out: MIC
[11] = tested on: M. tuberculosis clinical isolate 6418; assay: as above; type: cell-based; conditions: Mycobacterium tuberculosis; […]; solid Löwenstein-Jensen medium; read-out: MIC
[12] = tested on: M. tuberculosis clinical isolate 6448; assay: as above; type: cell-based; conditions: Mycobacterium tuberculosis; […]; solid Löwenstein-Jensen medium; read-out: MIC
[13] = tested on: M. tuberculosis clinical isolate 7384; assay: as above; type: cell-based; conditions: Mycobacterium tuberculosis; […]; solid Löwenstein-Jensen medium; read-out: MIC
[14] = tested on: M. tuberculosis clinical isolate 5055; assay: as above; type: cell-based; conditions: Mycobacterium tuberculosis; […]; solid Löwenstein-Jensen medium; read-out: MIC
[15] = tested on: M. tuberculosis clinical isolate 5253; assay: as above; type: cell-based; conditions: Mycobacterium tuberculosis; […]; solid Löwenstein-Jensen medium; read-out: MIC
M. tuberculosis H37Rv [16] = assay: as above; type: cell-based; conditions: Mycobacterium tuberculosis; H37Rv, Sensitive; solid Löwenstein-Jensen medium, 21-28 days; read-out: MIC
[17] = tested on: M. tuberculosis clinical isolate 6341; assay: as above; type: cell-based; conditions: Mycobacterium tuberculosis; […]; solid Löwenstein-Jensen medium; read-out: MIC
[18] = tested on: M. tuberculosis clinical isolate 6412; assay: as above; type: cell-based; conditions: Mycobacterium tuberculosis; […]; solid Löwenstein-Jensen medium; read-out: MIC
[19] = tested on: M. tuberculosis clinical isolate 4328; assay: as above; type: cell-based; conditions: Mycobacterium tuberculosis; […]; solid Löwenstein-Jensen medium; read-out: MIC
[20] = female, mouse, in vivo, po, 25 mg/kg
[21] = Table 1, H37Rv, REMA, read-out: MIC M. tuberculosis
[22] = Table S1, M. tuberculosis H37Rv, read-out: MIC

Compound: C[C@H]1COC2(CCN(c3nc(=O)c4cc(C(F)(F)F)cc([N+](=O)[O-])c4s3)CC2)O1 [BTZ043, 2-[(2S)-2-methyl-1,4-dioxa-8-azaspiro[4.5]dec-8-yl]-8-nitro-6-(trifluoromethyl)-4H-1,3-benzothia-zin-4-one]
- microsomal CLint (in vitro [1]): 16 µL/min/mg
- MIC99 (C. glutamicum ATCC 13032): 0.063 µg/mL (≈ 0.146 µM)
- TD50 (HepG2 human cell line; HepG2): 5 µg/mL
- TD50 (HepG2 human cell line; HepG2, REMA, triplicate, toxic dose inhibiting 50% of the population): 5 µg/mL
- TD99 (HepG2 human cell line; HepG2, REMA, triplicate, toxic dose inhibiting 99% of the population): 25 µg/mL
- selectivity index (HepG2 human cell line; HepG2 cytotoxicity relative to MIC): > 10 000
- bacterial burden in the lungs lower than untreated control (M. tuberculosis H37Rv [2]; 50 mg/kg per day, 28 days): 0.6 logs
- bacterial burden in the spleens lower than untreated control (M. tuberculosis H37Rv [2]; 50 mg/kg per day, 28 days): 1.7 logs
- reduction of bacterial burden in the lungs and spleens (M. tuberculosis H37Rv [2]; dose escalation study, 50 mg/kg, four weeks): 1 log
- Cmax (in vivo; [20]): 1920 ng/mL
- half-life (in vivo; [20]): 1.67 h
- k el (in vivo; [20]): 0.000116 s⁻¹
- AUC (in vivo; serum, female mice, single dose 25 mg/kg by gavage, non-compartmental): 259829 µg·min/L
- MIC99 (M. bolletii 1999-0888): > 100 µg/mL
- concentration giving full inhibition of DprE1 (M. tuberculosis DprE1): 20 µM
- embryos affected (notochord defects, shortened Anterior-Posterior axis) (zebrafish embryos; 25 nM): 60.4%
- embryos affected (notochord defects, shortened Anterior-Posterior axis) (zebrafish embryos; 50 nM): 76.7%
- MIC99 (M. bovis BCG Pasteur): 0.001 µg/mL (≈ 0.00232 µM)
- MIC (M. smegmatis GM22; GM22, read-out: MIC for GM22): 0.05 µg/mL (≈ 0.116 µM)
- MIC99 (M. smegmatis GM22): 0.031 µg/mL (≈ 0.0719 µM)
- MIC99 (C. diphtheriae DSM 44123): 0.06 µg/mL (≈ 0.139 µM)
- microsomal CLint (in vitro [3]): 12.2 µL/min/mg
- MIC99 (M. massiliense 2005-0484): > 100 µg/mL
- MIC99 (M. tuberculosis MDR_CHUV): 0.002 µg/mL (≈ 0.00464 µM)
- clearance on incubation with microsomes (in words) [4]: medium clearance values
- clearance on incubation with microsomes (in words) [5]: medium clearance values
- MIC99 (M. smegmatis mc^2155): 0.001 µg/mL (≈ 0.00232 µM)
- MIC99 (M. marinum Strain M [6]): 0.0007 µg/mL (≈ 0.00162 µM)
- MIC99 (M. tuberculosis H37Rv [7]; M. tuberculosis H37Rv): 0.001 µg/mL (≈ 0.00232 µM)
- NfnB-mediated reduction, species found by LC-MS [8]: almost entirely converted to its hydroxylamino analogue
- MIC99 (M. avium ATCC 15769): > 100 µg/mL
- MIC99 (M. vaccae ATCC 15483): > 100 µg/mL
- MIC99 (M. abscessus 2005-0524): > 100 µg/mL
- effect on the infection in zebrafish embryos (M. marinum strain M [9]; 5 nM): no significant effect
- bacterial burden in infected zebrafish embryos (fluorescence) (M. marinum strain M [9]; 25 or 50 nM): almost no bacteria were present
- MIC99 (M. bovis BCG BN2): >100 µg/mL
- fold increased resistance conferred by the Cys387Ser mutation in DprE1 (M. bovis BCG BN2): > 10 000 fold

Compound: CCCCCCCN1CCN(c2nc(=O)c3cc(C(F)(F)F)cc([N+](=O)[O-])c3s2)CC1 [PBTZ134]
- reduction of bacterial burden in the spleens, fold more than BTZ043 (M. tuberculosis H37Rv [2]; 50 mg/kg per day, 28 days): 10 fold
- MIC (M. tuberculosis H37Rv [7]; [21]): 0.00019 µg/mL (≈ 0.000414 µM)
- MIC (M. tuberculosis H37Rv [7]; [22]): 0.00019 µg/mL (≈ 0.000414 µM)
- NfnB-mediated reduction, species found by LC-MS [8]: as susceptible to NfnB-mediated reduction as BTZ043

Compound: O=c1nc(N2CCN(CCC3CCCCC3)CC2)sc2c([N+](=O)[O-])cc(C(F)(F)F)cc12 [PBTZ129]
- MIC (M. tuberculosis H37Rv [7]; [21]): 0.00019 µg/mL (≈ 0.000404 µM)
- MIC (M. tuberculosis H37Rv [7]; [22]): 0.00019 µg/mL (≈ 0.000404 µM)

Compound: NC(=O)N1c2ccccc2C=Cc2ccccc21 [Carbamazepine]
- microsomal CLint (in vitro [1]): 0.5 µL/min/mg
- microsomal CLint (in vitro [3]): 1.1 µL/min/mg

Compound: O=c1nc(N2CCN(CCCCOc3ccccc3)CC2)sc2c([N+](=O)[O-])cc(C(F)(F)F)cc12 [PBTZ137]
- MIC (M. tuberculosis H37Rv [7]; [21]): 0.0015 µg/mL (≈ 0.00295 µM)
- MIC (M. tuberculosis H37Rv [7]; [22]): 0.0015 µg/mL (≈ 0.00295 µM)

Compound: NNC(=O)c1ccncc1 [INH, isoniazid]
- MIC [10]: > 20 µg/mL
- MIC [11]: > 20 µg/mL
- MIC [12]: > 20 µg/mL
- MIC [13]: > 20 µg/mL
- MIC [14]: > 20 µg/mL
- MIC [15]: > 20 µg/mL
- MIC (M. tuberculosis H37Rv [16]): 0.125 µg/mL (≈ 0.911 µM)
- MIC [17]: > 20 µg/mL
- MIC [18]: > 20 µg/mL
- MIC [19]: 0.125 µg/mL (≈ 0.911 µM)

Compound: CO[C@H]1/C=C/O[C@@]2(C)Oc3c(C)c(O)c4c(O)c(c(/C=N/N5CCN(C)CC5)c(O)c4c3C2=O)NC(=O)/C(C)=C\C=C\[C@H](C)[C@H](O)[C@@H](C)[C@@H](O)[C@@H](C)[C@H](OC(C)=O)[C@@H]1C [RIF, rifampicin]
- MIC99 (C. glutamicum ATCC 13032): 0.004 µg/mL (≈ 0.00486 µM)
- MIC99 (M. bolletii 1999-0888): 50 µg/mL (≈ 60.8 µM)
- MIC99 (M. bovis BCG Pasteur): 0.001 µg/mL (≈ 0.00122 µM)
- MIC99 (M. smegmatis GM22): 1 µg/mL (≈ 1.22 µM)
- MIC99 (C. diphtheriae DSM 44123): 0.0008 µg/mL (≈ 0.000972 µM)
- MIC99 (M. massiliense 2005-0484): 25 µg/mL (≈ 30.4 µM)
- MIC99 (M. tuberculosis MDR_CHUV): > 100 µg/mL
- MIC99 (M. smegmatis mc^2155): 0.5 µg/mL (≈ 0.608 µM)
- MIC99 (M. marinum Strain M [6]): 0.39 µg/mL (≈ 0.474 µM)
- MIC99 (M. tuberculosis H37Rv [7]; M. tuberculosis H37Rv): 0.001 µg/mL (≈ 0.00122 µM)
- MIC99 (M. avium ATCC 15769): 25 µg/mL (≈ 30.4 µM)
- MIC99 (M. vaccae ATCC 15483): 100 µg/mL (≈ 122 µM)
- MIC99 (M. abscessus 2005-0524): 6.25 µg/mL (≈ 7.59 µM)
- MIC99 (M. bovis BCG BN2): 0.0008 µg/mL (≈ 0.000972 µM)

Compound: O=c1nc(N2CCN(CCCCc3ccccc3)CC2)sc2c([N+](=O)[O-])cc(C(F)(F)F)cc12 [PBTZ139]
- MIC (M. tuberculosis H37Rv [7]; [21]): 0.00037 µg/mL (≈ 0.000751 µM)
- MIC (M. tuberculosis H37Rv [7]; [22]): 0.00037 µg/mL (≈ 0.000751 µM)
